Laboratory results reported in patent US10836954B2 (priority 2015, dated 2020).

Key:
[1] = system: Pseudomonas Fluorescens; type: cell-based; conditions: breaker 1.0 gpt added to 0.25 gpt biocide; 1% KCl water pH 7.7, 77° F., 1 h and 5 h
Protocol: 500 mL of 1% KCl water, buffered with sodium bicarbonate to pH 7.7 was inoculated with 10 mL of a Nutrient Broth containing live Pseudomonas f. and blended on a Waring lab blender at 2000 rpm for 5 minutes. After blending, it was separated into 30 mL samples in separate bottles. The first and last bottles were left without biocide or breaker to act as controls. The remaining samples were treated with varying concentrations of biocide and oxidizing breakers.
(§1) Biocidal activity analysis was completed using a […]® PhotonMaster™ luminometer and Quench-Gone™ Organic Modified (QGO-M) ATP test kit. At the initial time (Time 0), both control samples were tested using the ATP kit. All samples were then incubated at 77° F. All samples (5 mL) were then tested using the ATP kit at one hour and again at 5 hours.

[2] = system: Pseudomonas Fluorescens; conditions: well water, 72° F.
Protocol: The biocidal activity of THPS/oxidizing breaker compositions against Pseudomonas Fluorescens was examined. In the first experiment, 2 L of well water was inoculated with 4 mL of a Nutrient Broth containing live Pseudomonas f. and stirred using an overhead mixer at 2000 rpm. After thorough mixing, and with the mixer running, 150 mL samples were taken with a syringe and inserted into separate bottles. The first and last bottles were left without biocide or breaker to act as controls. The remaining samples were treated with varying concentrations of biocide and oxidizing breakers.
as §1, with “left” for “incubated”, “ambient lab temperature (72° F.).” for “77° F.”, “(20 mL each)” for “(5 mL)”, “and” for “and again”, “24” for “5”

| Compound | effect of added breaker on decrease in microbial activity (ATP analysis) [1] | compatibility of biocidal activity with oxidizing breakers (ATP analysis) ([2]; THPS 20% 0.25 or 0.50 gpt with sodium persulfate, hydrogen peroxide 7% or sodium chlorite 8%, 1 h and 24 h) | effect of addition of the breakers on biocidal properties (ATP analysis) ([2]; THPS concentration of 0.25 gpt, 1 h and 24 h (FIG. 5)) |
| --- | --- | --- | --- |
| OO [hydrogen peroxide 7%, hydrogen peroxide] | may be accelerated or enhanced slightly |  |  |
| sodium chlorite [sodium chlorite 8%] | may be accelerated or enhanced slightly |  |  |
| tetrakis(hydroxymethyl)phosphonium sulphate [THPS] |  | no apparent incompatibility | appears to enhance or accelerate the biocidal properties |
